# Reference: patent US9024041B2, “P38 MAP kinase inhibitors” (Respivert Ltd., priority 2010, dated 2015)
# Marks after values point to notes of the source that are not given here.
# Tests used:
# [1] = target: T1, p38 MAPKα isoform (MAPK14: Invitrogen) (Homo sapiens, UniProt Q16539); assay: p38 MAPKα enzyme inhibition assay (FRET, Z-LYTE, via MAPKAP-K2 activation); type: biochemical; settings: 2 hr pre-incubation, ATP 10.0 μM; read-out: Enzyme Inhibition IC50 p38α
# T1 construct: purchased Invitrogen
# [2] = target: T2, Recombinant, phosphorylated p38 MAPKγ (MAPK12:Invitrogen) (Homo sapiens, UniProt P53778); assay: p38 MAPKγ enzyme inhibition assay (FRET, Z-LYTE); type: biochemical; settings: 2 hr pre-incubation, ATP 100 μM; read-out: Enzyme Inhibition IC50 p38γ
# T2 construct: purchased Invitrogen
# T2 sequence (P53778 1-367): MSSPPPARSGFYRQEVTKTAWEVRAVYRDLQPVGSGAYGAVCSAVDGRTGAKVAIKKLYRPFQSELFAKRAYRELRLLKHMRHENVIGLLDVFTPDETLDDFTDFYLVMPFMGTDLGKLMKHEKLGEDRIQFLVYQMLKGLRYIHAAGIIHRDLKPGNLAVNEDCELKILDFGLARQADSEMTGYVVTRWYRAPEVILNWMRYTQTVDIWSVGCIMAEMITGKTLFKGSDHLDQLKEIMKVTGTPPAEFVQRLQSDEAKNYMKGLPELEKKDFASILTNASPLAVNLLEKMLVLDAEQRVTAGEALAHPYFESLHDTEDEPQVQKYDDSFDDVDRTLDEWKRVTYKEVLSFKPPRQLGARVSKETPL
# [3] = system: LPS-induced TNFα release in THP-1 cells; assay: LPS-induced TNFα release in THP-1 cells; type: cell-based; settings: Homo sapiens, 3 μg/mL LPS, 4 hr
# Protocol: Cellular Potency as Determined by LPS-Induced TNFα Release in THP-1 Cells
# THP-1 cells, a human monocytic cell line, were stimulated with 3 μg/mL of LPS (from E. Coli; 0111:B4, Sigma) for 4 hr and the supernatant collected for determination of the TNFα concentration by sandwich ELISA (Duo-set, R&D systems). The inhibition of TNFα production was calculated at each concentration by comparison with vehicle control. The 50% inhibitory concentration (IC50) was determined from the resultant concentration-response curve.
# [4] = system: LPS-induced TNFα release in d-U937 cells; assay: LPS-induced TNFα release in d-U937 cells; type: cell-based; settings: Homo sapiens, dU937, 4 h; read-out: LPS/TNFα REC50 d-U937
# Protocol: (§1) Cellular Potency as Determined by LPS-Induced TNFα/IL-8 Release in d-U937Cells
# (§2) U937 cells, a human monocytic cell line, were differentiated to macrophage-type cells by incubation with phorbol myristate acetate (PMA; 100 ng/mL) for 48 to 72 hr. Cells were pre-incubated with final concentrations of test compound for 2 hr and were then stimulated with 0.1 μg/mL of LPS (from E. Coli: O111:B4, Sigma) for 4 hr. The supernatant was collected for determination of TNFα and IL-8 concentrations by sandwich ELISA (Duo-set, R&D systems). […] The relative 50% effective concentration (REC50) was determined from the resultant concentration-response curve. The inhibition of IL-8 production was calculated at each concentration of test compound by comparison with vehicle control. The 50% inhibitory concentration (IC50) was determined from the resultant concentration-response curve.
# [5] = system: LPS-induced IL-8 release in d-U937 cells; assay: LPS-induced IL-8 release in d-U937 cells; type: cell-based; settings: Homo sapiens, dU937, 0.1 μg/mL LPS, 4 hr
# Protocol: as §1, §2
# [6] = system: Poly I:C-induced ICAM-1 expression in BEAS2B cells; assay: Poly I:C-induced ICAM-1 induction in BEAS2B cells; type: cell-based; settings: Homo sapiens, BEAS-2B, poly I:C 1 μg/mL, 18 hr, read-out: PolyI:C/ICAM1 IC50 BEAS2B
# Protocol: Cellular Potency as Determined by Poly I:C-Induced ICAM-1 Induction in BEAS2B Cells
# Poly I:C (1 μg/mL) (Invivogen Ltd., San Diego, Calif.) was transfected into BEAS2B cells (human bronchial epithelial cells, ATCC) with Oligofectamine (Invitrogen, Carlsbad, Calif.). Cells were pre-incubated with final concentrations of test compounds for 2 hr and the level of ICAM1 expression on the cell surface was determined by cell-based ELISA. At a time point 18 hr after poly I:C transfection, cells were fixed with 4% formaldehyde in PBS and then endogenous peroxidase was quenched by the addition of 0.1% sodium azide and 1% hydrogen peroxide. Cells were washed with wash-buffer (0.1% Tween in PBS: PBS-Tween). and after blocking the wells with 5% milk in PBS-Tween for 1 hr, the cells were incubated with anti-human ICAM-1 antibody (Cell Signaling Technology, Danvers, Mass.) in 1% BSA PBS overnight at 4° C. The cells were washed with PBS-Tween and incubated with the secondary antibody (HRP-conjugated anti-rabbit IgG, Dako Ltd., Glostrup, Denmark). The ICAM-1 signal was detected by adding substrate and reading the absorbance at 450 nm against a reference wavelength of 655 nm using a spectrophotometer. The cells were then washed with PBS-Tween and total cell numbers in each well were determined by reading absorbance at 595 nm after Crystal Violet staining and elution by 1% SDS solution. The measured OD 450-655 readings were corrected for cell number by dividing with the OD595 reading in each well. The inhibition of ICAM-1 expression was calculated at each concentration of test compound by comparison with vehicle control. The 50% inhibitory concentration (IC50) was determined from the resultant concentration-response curve.
# [7] = system: Differentiated U937 cells; assay: MTT assay: cell viability on exposure to test compounds; type: cell-based, human; settings: percentage loss of cell viability vs vehicle; for MTT Assay (Viability) 4 h d-U937: 5% FCS; for MTT Assay (Viability) 24 h d-U937: 10% FCS
# Protocol: MTT Assay: Determination of Cell Viability on Exposure to Test Compounds
# Differentiated U937 cells were pre-incubated with each test compound under two protocols: the first for 4 hr in 5% FCS and the second in 10% FCS for 24 h. The supernatant was replaced with 200 μL of new media and 10 μL of MTT stock solution (5 mg/mL) was added to each well. After incubation for 1 hr the media were removed, 200 μL of DMSO was added to each well and the plates were shaken lightly for 1 hr prior to reading the absorbance at 550 nm. The percentage loss of cell viability was calculated for each well relative to vehicle (0.5% DMSO) treatment. Consequently an apparent increase in cell viability for drug treatment relative to vehicle is tabulated as a negative percentage.
# T1 sequence (Q16539 whole entry, canonical isoform): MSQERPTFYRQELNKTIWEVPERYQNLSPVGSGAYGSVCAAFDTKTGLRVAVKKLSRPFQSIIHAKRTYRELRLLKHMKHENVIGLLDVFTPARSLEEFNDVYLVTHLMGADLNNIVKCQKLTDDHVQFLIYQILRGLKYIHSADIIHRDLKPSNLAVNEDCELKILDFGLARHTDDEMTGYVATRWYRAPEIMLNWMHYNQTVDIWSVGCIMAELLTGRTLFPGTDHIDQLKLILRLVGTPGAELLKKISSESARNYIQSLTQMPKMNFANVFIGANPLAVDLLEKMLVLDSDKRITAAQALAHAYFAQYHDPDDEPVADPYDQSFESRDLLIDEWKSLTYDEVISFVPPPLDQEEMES
SMILES,IC50 [1] [µM],IC50 [2] [µM],IC50 [3] [µM],EC50 [4] [µM],IC50 [5] [µM],IC50 [6] [µM],MTT Assay (Viability) 4 h d-U937 ([7]; 1 μg/mL) [%],MTT Assay (Viability) 24 h d-U937 ([7]; 1 μg/mL) [%],MTT Assay (Viability) 4 h d-U937 ([7]; 10 μg/mL),MTT Assay (Viability) 24 h d-U937 ([7]; 10 μg/mL)
"COCC(=O)Nc1cc(COc2ccc(NC(=O)Nc3cc(C(C)(C)C)nn3-c3ccc(C)cc3)c(C)c2C)ccn1 [Example 58, N-(4-((4-(3-(3-tert-butyl-1-(p-tolyl)-1H-pyrazol-5-yl)ureido)-2,3-dimethylphenoxy)methyl)pyridin-2-yl)-2-methoxyacetamide]",0.0106,0.329,0.388,0.0104,0.0456,0.474,−2.8,12.0,,
"CC(C)(C)c1cc(NC(=O)Nc2ccc(Oc3ccnc(NC(=O)NC4CC4)c3)c3ccccc23)n(-c2ccc(S(C)(=O)=O)cc2)n1 [Example 47, 1-(3-tert-butyl-1-(4-(methylsulfonyl)phenyl)-1H-pyrazol-5-yl)-3-(4-(2-(3-cyclopropylureido)pyridin-4-yloxy)naphthalen-1-yl)urea]",0.0084,0.262,0.0173,0.017,0.0243,0.0024,3.5,−21.7,,
"CC(C)(C)c1cc(NC(=O)Nc2ccc(Oc3ccnc(NC(=O)N4CCOCC4)c3)c3ccccc23)n(-c2ccc(S(C)(=O)=O)cc2)n1 [Example 49, N-(4-(4-(3-(3-tert-butyl-1-(4-(methylsulfonyl)phenyl)-1H-pyrazol-5-yl)ureido)naphthalen-1-yloxy)pyridin-2-yl)morpholine-4-carboxamide]",0.0052,0.185,0.0008,0.0005,0.0008,0.0107,−15.9,11.8,,
"COCC(=O)Nc1cc(Oc2ccc(NC(=O)Nc3cc(C(C)(C)C)nn3-c3cc(OC)cc(OC)c3)c3ccccc23)ccn1 [Example 53, N-(4-(4-(3-(3-tert-butyl-1-(3,5-dimethoxyphenyl)-1H-pyrazol-5-yl)ureido)naphthalen-1-yloxy)pyridin-2-yl)-2-methoxyacetamide]",0.0299,0.0834,0.0012,0.0004,0.02,0.0274,3.1,−0.9,,
"COCCOCC(=O)Nc1cc(Cc2ccc(NC(=O)Nc3cc(C(C)(C)C)nn3-c3ccc(C)cc3)c3ccccc23)ccn1 [Example 65, N-(4-((4-(3-(3-tert-butyl-1-p-tolyl-1H-pyrazol-5-yl)ureido)naphthalen-1-yl)methyl)pyridin-2-yl)-2-(2-methoxyethoxy)acetamide]",0.0012,0.275,0.0107,0.0109,0.0189,0.0627,,,−1.5^b %,55.9^b %
"COCC(=O)Nc1cc(Oc2ccc(NC(=O)Nc3cc(C45CC6CC(CC(C6)C4)C5)nn3-c3ccc(C)cc3)c3ccccc23)ccn1 [Example 27, N-(4-(4-(3-(3-(adamantan-1-yl)-1-p-tolyl-1H-pyrazol-5-yl)ureido)naphthalen-1-yloxy)pyridin-2-yl)-2-methoxyacetamide]",0.0743,1.97,0.0152,0.0188,3.52,0.284,−4.6,−23.9,,
"COCC(=O)Nc1cc(Oc2ccc(NC(=O)Nc3cc(C(C)(C)C)nn3-c3ccc(O)nc3)c3ccccc23)ccn1.Cl [Example 17, N-(4-(4-(3-(3-tert-Butyl-1-(6-hydroxypyridin-3-yl)-1H-pyrazol-5-yl)ureido)naphthalen-1-yloxy)pyridin-2-yl)-2-methoxyacetamide]",0.0143,0.0763,0.002,0.0014,0.0245,0.0253,−6.1,−7.6,,
"COc1ccc(-n2nc(C(C)(C)C)cc2NC(=O)Nc2ccc(Oc3ccnc(NC(=O)N4CCCC4)c3)c3ccccc23)cc1 [Example 8, N-(4-(4-(3-(3-tert-Butyl-1-(4-methoxyphenyl)-1H-pyrazol-5-yl)ureido)naphthalen-1-yloxy)pyridin-2-yl)pyrrolidine-1-carboxamide]",0.0166,0.228,0.0016,0.0006,0.0012,0.0014,−20.1,−77.9,,
"CNC(=O)Nc1cc(COc2ccc(NC(=O)Nc3cc(C(C)(C)C)nn3-c3ccc(OC)cc3)c(C)c2C)ccn1 [Example 60, 1-(4-((4-(3-(3-tert-butyl-1-(4-methoxyphenyl)-1H-pyrazol-5-yl)ureido)-2,3-dimethylphenoxy)methyl)pyridin-2-yl)-3-methylurea]",0.013,> 17.5,0.122,0.0243,0.364,> 0.175,17.2,−0.2,,
"COCC(=O)Nc1cc(Oc2ccc(NC(=O)Nc3cc(C(C)(C)C)nn3-c3ccc(OC(F)(F)F)cc3)c3ccccc23)ccn1 [Example 41, N-(4-(4-(3-(3-tert-butyl-1-(4-(trifluoromethoxy)phenyl)-1H-pyrazol-5-yl)ureido)naphthalen-1-yloxy)pyridin-2-yl)-2-methoxyacetamide]",0.0261,0.875,0.0076,0.0152,0.0104,0.0214,−26.2,1.3,,
